Assay results: patent US20190022114A1, “METHODS AND COMPOSITIONS FOR REDUCING BODY WEIGHT AND INCREASING GUT MOTILITY” (priority 2016, published 2019)

Tests used:
Wistar rats = conditions: 13 weeks, cited from earlier work
[1] = system: LEPR (Leptin Receptor) mutants; assay: Weight loss and fat loss effect of D-ribose in mouse obesity model; format: in vivo; conditions: 48 days
Experimental: Classic obesity model LEPR (Leptin Receptor) mutants (Age 42 day, male) and wild-type FVB strain mice were used in the testing.
D-ribose was feed to mice in D-ribose water solution at concentrations indicated (75 mg/ml and 50 mg/ml). Control animals were feed with water. All animals were fed on normal diet. There was no restriction on the amount of liquid or food consumption.
The liquid and food consumption were measured at 4 day intervals. The actual D-ribose consumption for each animal was calculated based on its liquid intake volume.
Mouse body fat was measured using MiniSpec NMR Analyzer.
P-values were calculated using t-test (unpaired, 2 tails) for data points after 48 days of treatment.
Test results were shown in FIG. 1 and FIG. 2, wherein Square (▪) represents the treatment group, and Circle (●) represents control group. Classic obesity model LEPR (Leptin Receptor) mutants (Age 42 day, male) were used in the testing. The control group was fed with water. Animals were fed on normal diet.

C57BL/6 mice = assay: Whole gut transit time (carmine gavage); format: in vivo, mouse; conditions: 0.5 ml 75 mg/ml oral gavage, p value=0.004
Experimental: D-ribose was administered to C57BL/6 mice of 8 weeks old. Before administering, mice were fasted for 18 hours with free access to water and housed on a mesh plate without bedding. The mice were orally fed with 0.5 ml carmine solution (6% carmine in 0.5% methylcellulose) containing either 75 mg/ml D-ribose or xylose. After oral force gavage, mice were returned to individually housed mesh bottom cages, which were placed on a white sheet. Whole gut transit time is the time taken from carmine meal gavage to the appearance of the first red fecal pellets.

## O=C[C@H](O)[C@H](O)[C@H](O)CO [D-ribose]
Wistar rats; female rats, 5% in diet
  NOAEL, females: 4.4 g/kg body weight/day
Wistar rats; male rats, 5% in diet
  NOAEL, males: 3.6 g/kg body weight/day
Wistar rats; rats, in diet
  no observed adverse effect level (NOAEL), concentration in the diet: 5%
Wistar rats; rats, up to 20% of diet (15.0 and 15.7 g/kg body weight/day males and females)
  effect at up to 20% of diet: nutritional but not toxicological effect
[1]; 50 mg/ml in water, 20.59 gram/kg/day, data not shown
  fat gain (body fat measurement): reduced fat gain but not statistically significant
[1]; 50 mg/ml in water, 20.59 gram/kg/day, obese LEPR mutant male mice, p-value 0.001
  weight gain vs control animals: statistically significantly decreased weight gain
[1]; 75 mg/ml in water, 30.03 gram/kg/day, obese LEPR mutant male mice, p-value 0.00015
  body fat (NMR) vs control animals: fat loss
[1]; 75 mg/ml in water, 30.03 gram/kg/day, obese LEPR mutant male mice, p-value 0.01
  body weight vs control animals: statistically significant weight loss
C57BL/6 mice
  gut transition time vs xylose control: shortened gut transition time
